We go through 8 compounds from PubChem BioAssay (NCI).

Some test systems named below: 786-0 renal; A498 renal; DU-145 prostate; HCC-2998 colon; SN12C renal; SK-OV-3 ovarian; NCI-H522 lung; NCI-H460 lung; KM12 colon; MDA-MB-231 breast.
What all share (assay): growth of human tumour cells (NCI), 48 h

Values joined by “and” are separate entries in the source; they are usually repeats but may differ in a detail not shown here. Identical values can stand only once.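 Tested at 5 concentrations; 48 h exposure; 96-well plates; endpoints linearly interpolated, else capped at highest concentration. The concentration for 50% growth inhibition is given as GI50. At the TGI there is no net growth.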

Consider `CCCCCCn1c(=N)n(CC(O)COc2cccc(C)c2)c2ccccc21` (stereo not given), for which the GI50 is 1.72 µM in the test with 786-0 renal; 1.8 µM with A498 renal; 3.67 µM with DU-145 prostate; 2.04 µM in the test on HCC-2998 colon; 3.21 µM in the test on SN12C renal; 3.38 µM in the test with SK-OV-3 ovarian. In addition, the GI50 was 1.78 µM with NCI-H522 lung, 1.96 µM in the test with NCI-H460 lung, 2.04 µM with KM12 colon and 2.2 µM in the test on MDA-MB-231 breast. The TGI in the test on 786-0 renal amounted to 3.24 µM; with A498 renal, 7.35 µM; with DU-145 prostate, 12.1 µM; in the test on HCC-2998 colon, 3.65 µM; in the test on SN12C renal, 13.8 µM; in the test on SK-OV-3 ovarian it was 9.32 µM. Further, the TGI in the test on NCI-H522 lung turned out to be 3.82 µM; with NCI-H460 lung, 3.88 µM; in the test with KM12 colon, 4.17 µM; in the test on MDA-MB-231 breast it was 6.44 µM.

In the case of `COc1ccc(/C=C2\CC(C)CC3C2=NN(C(C)=O)C3c2ccc(OC)c(OC)c2)cc1OC` (stereo not given), the GI50 was 12.9 µM in the test with 786-0 renal; 15.9 µM in the test with A498 renal; 19.7 µM with DU-145 prostate; 12 µM in the test on HCC-2998 colon; 22.7 µM in the test on SN12C renal; 31 µM in the test on SK-OV-3 ovarian. The GI50 is 14.5 µM in the test on NCI-H522 lung, 15.5 µM with NCI-H460 lung, 19.7 µM in the test on KM12 colon and 24.5 µM with MDA-MB-231 breast. For the same compound, the TGI with 786-0 renal was 27.4 µM; in the test with A498 renal, 31 µM; in the test with DU-145 prostate it was 47.8 µM; in the test with HCC-2998 colon, 24.3 µM; with SN12C renal it was 62.3 µM; in the test with SK-OV-3 ovarian, 75.7 µM. Further, the TGI was 40.4 µM in the test on NCI-H522 lung, 34.9 µM with NCI-H460 lung, 42.1 µM in the test with KM12 colon and more than 100 µM in the test on MDA-MB-231 breast.

On to `O=C(/C=C/CN1CCCCC1)Nc1cc2c(Nc3ccc(F)c(Cl)c3F)ncnc2cc1OCCOC(F)F`, for which the GI50 is 0.781 µM in the test on 786-0 renal; 0.299 µM in the test on A498 renal; 0.265 µM with DU-145 prostate; 1.6 µM in the test on HCC-2998 colon; 0.318 µM in the test on SN12C renal; less than 0.0201 µM in the test with SK-OV-3 ovarian. In addition, the GI50 with NCI-H522 lung is 0.0493 µM; in the test on NCI-H460 lung, 2.01 µM; in the test with KM12 colon it was 2.44 µM; in the test on MDA-MB-231 breast, 0.882 µM. The TGI worked out at 6.38 µM in the test with 786-0 renal; 2.02 µM in the test on A498 renal; 6.24 µM in the test on DU-145 prostate; 3.97 µM with HCC-2998 colon; 5.93 µM with SN12C renal; 0.263 µM with SK-OV-3 ovarian. Besides, the TGI in the test with NCI-H522 lung amounted to 1.8 µM; in the test on NCI-H460 lung it was 11 µM; in the test with KM12 colon it was 9.01 µM; in the test with MDA-MB-231 breast it was 4.88 µM.

For the compound `C[CH2][Ge]1([CH2]C)[CH2]CC2(CCN(CCCN(C)C)C2)C[CH2]1`, the GI50 in the test on 786-0 renal is 1.43 µM; with A498 renal it was 1.64 µM and 1.05 µM; in the test with DU-145 prostate, 2.48 µM and 3.09 µM; with HCC-2998 colon it was 0.21 µM and 1.68 µM; with SN12C renal, 1.38 µM; in the test with SK-OV-3 ovarian, 2.64 µM and 3.59 µM. Besides, the GI50 in the test on NCI-H522 lung is 1.3 µM and 11.2 µM; in the test on NCI-H460 lung it was 1.44 µM and 2.53 µM; with KM12 colon, 1.83 µM and 10.2 µM; in the test on MDA-MB-231 breast, 1.46 µM. Also, the TGI is 2.87 µM in the test with 786-0 renal; 3.26 µM and 1.68 µM with A498 renal; 6.64 µM and 8.84 µM with DU-145 prostate; 0.543 µM and 3.8 µM in the test on HCC-2998 colon; 4.62 µM in the test on SN12C renal; 6.11 µM and 9.62 µM with SK-OV-3 ovarian. Also, the TGI in the test with NCI-H522 lung is 2.88 µM and 24.4 µM; in the test with NCI-H460 lung it was 3.05 µM and 4.6 µM; in the test on KM12 colon, 4.02 µM and 22.2 µM; with MDA-MB-231 breast, 2.96 µM.

Take `CCOC(=O)C(Cc1ccc(N(CCCl)CCCl)cc1)NC(=O)C(CC(C)C)NC(C)=O` (stereo not given): the GI50 in the test on 786-0 renal was 1.38 µM; in the test with A498 renal, 2.29 µM; in the test with DU-145 prostate, 0.472 µM; in the test on HCC-2998 colon, 1.82 µM; in the test on SN12C renal it was 0.999 µM; with SK-OV-3 ovarian it was 1.38 µM. Further, the GI50 in the test with NCI-H522 lung was 1.13 µM; in the test on NCI-H460 lung, 0.0763 µM; with KM12 colon, 4.35 µM; in the test with MDA-MB-231 breast, 2 µM. Further, the TGI with 786-0 renal stood at 4.38 µM; in the test on A498 renal it was 10.6 µM; in the test on DU-145 prostate it was 4.41 µM; with HCC-2998 colon, 5.95 µM; with SN12C renal it was 10.9 µM; in the test on SK-OV-3 ovarian it was 4.94 µM. For the same compound, the TGI with NCI-H522 lung stood at 2.65 µM; in the test on NCI-H460 lung it was 1.54 µM; in the test with KM12 colon, 18.8 µM; in the test on MDA-MB-231 breast, 4.94 µM.

Turning to `COc1cc2c(cc1Nc1nc(Nc3ccsc3C(N)=O)c3cc[nH]c3n1)N(C(=O)CN(C)C)CCC2`, the GI50 is 3.13 µM with 786-0 renal; 0.5 µM in the test with A498 renal; 0.481 µM in the test on DU-145 prostate; 0.2 µM in the test on HCC-2998 colon; 3.67 µM with SN12C renal; 1.18 µM in the test with SK-OV-3 ovarian. Also, the GI50 with NCI-H522 lung was 0.507 µM; with NCI-H460 lung, 0.498 µM; in the test with KM12 colon, 0.529 µM; with MDA-MB-231 breast, 1.01 µM. In addition, the TGI with 786-0 renal worked out at 6.95 µM; in the test on A498 renal, 4.13 µM; in the test with DU-145 prostate, 1.64 µM; with HCC-2998 colon, 2.27 µM; with SN12C renal, 11.8 µM; in the test with SK-OV-3 ovarian, 4.89 µM. In addition, the TGI in the test on NCI-H522 lung was 2.19 µM; in the test on NCI-H460 lung, 3.21 µM; in the test with KM12 colon, 2.66 µM; in the test with MDA-MB-231 breast, 4.63 µM.

Consider `C/C(=C1/N=C(c2ccccc2)OC1=O)c1cccs1`, for which the TGI with 786-0 renal, with A498 renal, in the test with DU-145 prostate, in the test with HCC-2998 colon, in the test on SN12C renal and with SK-OV-3 ovarian was more than 100 µM each time. Also, the TGI in the test on NCI-H522 lung, in the test on NCI-H460 lung, in the test with KM12 colon and in the test with MDA-MB-231 breast was more than 100 µM each time.

On to `CCOC(=O)c1ccccc1NC(c1ccccc1)c1ccc2cccnc2c1O` (stereo not given), for which the GI50 in the test with 786-0 renal is 3.39 µM; in the test on A498 renal, 1.15 µM; with DU-145 prostate it was 5.94 µM; with HCC-2998 colon, 5.77 µM; in the test with SN12C renal it was 3.83 µM; in the test with SK-OV-3 ovarian, 3.64 µM. The GI50 is 3.36 µM in the test on NCI-H522 lung, 2.82 µM in the test on NCI-H460 lung, 3.99 µM with KM12 colon and 5.59 µM in the test with MDA-MB-231 breast. In addition, the TGI with 786-0 renal was more than 100 µM; in the test with A498 renal it was 8.05 µM; with DU-145 prostate, more than 100 µM; with HCC-2998 colon it was more than 100 µM; in the test on SN12C renal it was more than 100 µM; with SK-OV-3 ovarian, 56.4 µM. In addition, the TGI in the test on NCI-H522 lung was 11.6 µM; in the test with NCI-H460 lung, 78.4 µM; with KM12 colon it was more than 100 µM; in the test with MDA-MB-231 breast, 72.7 µM.
